Measured values as given in paper PMC8143291, “Cytotoxicity and Microbicidal Activity of Commonly Used Organic Solvents: A Comparative Study and Application to a Standardized Extract from Vaccinium macrocarpon” (Toxics, 2021).
“And” between values parts separate entries of the source, which are not always exact repeats. Equal values may be shown once.

Key:
[1] = tested on: breast cancer, mouse macrophage and human umbilical vein endothelial cells; set-up: method as in doi:10.17795/ajmb-33453; settings: cited from earlier work
[2] = tested on: Chinese hamster liver cell line; settings: cited from earlier work
S. Aureus ATCC 29213 [3] = test: Broth microdilution MIC/MBC; format: cell-based, Staphylococcus aureus; settings: 24 h exposure; v/v; n = 3
Text: (§1) The bacterial strains used for AST of the solvents included: Staphylococcus aureus (ATCC 29213), Staphylococcus aureus—MRSA (NBIMCC 8327—resistant to methicillin and oxacillin, National Bulgarian Collection for Industrial Microorganisms and Cell Cultures, Sofia, Bulgaria), Streptococcus pyogenes (SAIMC 10535, Collection of the Stephan Angeloff Institute of Microbiology, Sofia, Bulgaria), Enterococcus faecalis (ATCC 29212), Escherichia coli (ATCC 35218), Pseudomonas aeruginosa (ATCC 27853), and Yersinia enterocolitica (IP864 O:3, Collection of Institut Pasteur, Paris, France). The selected strains are the most often investigated ones in the AST research studies in correspondence with the standard ISO 20776-1 Part 1: Reference method for testing the in vitro activity of antimicrobial agents against rapidly growing aerobic bacteria involved in infectious diseases. The antimycotic activity was tested on Candida albicans (CBS 562, Utrecht, The Netherlands). The strains S. aureus, MRSA, E. coli and E. faecalis were grown on Mueller–Hinton broth/agar (MHB/MHA); S. pyogenes, P. aeruginosa, Y. enterocolitica and C. albicans were grown on brain heart infusion (BHI) broth/agar; E. coli was also grown on Luria–Bertani broth/agar (LBB/LBA).
(§2) The minimum inhibitory concentration (MIC) for each solvent was estimated by the broth microdilution method (BMD) in 96-well microplates, following ISO 20776/1-2006 [3] and CLSI protocols. Briefly, a standardized bacterial inoculum was prepared from each bacterial species by suspending 3–4 colonies from a pure culture into 4 mL sterile saline. The turbidity of the inocula was adjusted to McFarland 0.5 (1.0 × 10^8 CFU/mL, λ = 600 nm), and 50 µL were resuspended in 10 mL of the appropriate culture medium for each strain. The bacterial inocula were added to microtiter trays containing equivalent volumes of medium loaded with the relevant solvent in concentrations varying from 0.025 to 25% volume fraction. The final volume of each sample was 100 µL/well. The plates were incubated at 37 °C for 24 h. The pure culture medium served as a negative control. Every MIC was evaluated visually as the lowest concentration without visible growth. […] MBC was defined as the lowest compound’s concentration reducing the colony growth of the initial bacterial inoculum by ≥ 99.9%.

[4] = tested on: S. Aureus MRSA NBIMCC 8327; test: Broth microdilution MIC/MBC; format: cell-based, Staphylococcus aureus; settings: 24 h exposure; v/v; n = 3
Text: as §1, §2

S. pyogenes SAIMC 10535 [5] = test: Broth microdilution MIC/MBC; format: cell-based, Streptococcus pyogenes; settings: 24 h exposure; v/v; n = 3
Text: as §1, §2

E. faecalis ATCC 29212 [6] = test: Broth microdilution MIC/MBC; format: cell-based, Enterococcus faecalis; settings: 24 h exposure; v/v; n = 3
Text: as §1, §2

E. coli ATCC 35218 [7] = test: Broth microdilution MIC/MBC; format: cell-based, Escherichia coli; settings: 24 h exposure, v/v, n = 3
Text: as §1, §2

P. aeruginosa ATCC 27853 [8] = test: Broth microdilution MIC/MBC; format: cell-based, Pseudomonas aeruginosa; settings: 24 h exposure; v/v; n = 3
Text: as §1, §2

[9] = tested on: Y. enterocolitica IP 864 O: 3; test: Broth microdilution MIC/MBC; format: cell-based, Yersinia enterocolitica; settings: 24 h exposure; v/v; n = 3
Text: as §1, §2

[10] = tested on: Candida Albicans SAIMC 562; test: Broth microdilution MIC/MBC; format: cell-based; settings: 24 h exposure; v/v; n = 3
Text: as §1, with “The antimycotic activity was tested on Candida albicans (CBS 562, Utrecht, The Netherlands).” left out
as §2

S. epidermidis = tested on: S. epidermidis; set-up: method as in doi:10.5580/b43; settings: in the presence of 6% solvent; cited from earlier work
[11] = no reference given; cited from earlier work
S. Aureus ATCC 29213 [12] = test: Dehydrogenase activity (DEHA) MTT test after BMD; format: cell-based, Staphylococcus aureus; settings: 24 h exposure; % against untreated control; ± SD; n = 3
Method: (§3) The cell dehydrogenase (DEHA, redox, metabolic) activity of all samples was measured at the end of the BMD assay, based on reducing the MTT dye to formazan by the membrane located bacterial enzyme NADH: ubiquinone reductase (H^+-translocation). The protocol of Wang et al. was applied after minor modifications. Briefly, each sample was incubated for 120 min at 37 °C with MTT at a final concentration of 0.5 mg/mL in the culture medium. The resulting non-soluble violet formazan crystals were dissolved with an equal volume of 2-propanol supplemented with 5% formic acid. The absorbance was measured at 550 nm against a blank solution containing the respective volumes of MHB and MTT.
(§4) The cell viability is presented as a percentage of the untreated control. At least four wells were seeded for every concentration. Three independent assays were performed (n = 3). […] The respiratory activity of the bacterial cultures was calculated as a percentage against the untreated control.

S. pyogenes SAIMC 10535 [13] = test: Dehydrogenase activity (DEHA) MTT test after BMD; format: cell-based, Streptococcus pyogenes; settings: 24 h exposure; % against untreated control; ± SD; n = 3
Method: as §3, §4

[14] = tested on: Y. enterocolitica IP 864 O: 3; test: Dehydrogenase activity (DEHA) MTT test after BMD; format: cell-based, Yersinia enterocolitica; settings: 24 h exposure; % against untreated control; ± SD; n = 3
Method: as §3
The IC50 values from the MTT assay were evaluated with a non-linear regression analysis (Curve fit, GraphPad Prizm 6.01 software, GraphPad Software Inc., San Diego, CA, USA) using sigmoidal concentration–response curves. The cell viability is presented as a percentage of the untreated control. At least four wells were seeded for every concentration. Three independent assays were performed (n = 3). The maximum tolerated concentration (MTC) for the cell lines was determined from three independent assays according to ISO 10993-5 as the maximum concentration at which at least 70% of the cells were viable (nonlin fit, range, GraphPad Prizm 6.01 software) GraphPad Software Inc., San Diego, CA, USA). To compare the MTC values of the solvents for each cell line, the ordinary One-way ANOVA statistical analysis based on Tukey’s multiple comparisons test with a single pooled variance (GraphPad Prizm 6.01 software) GraphPad Software Inc., San Diego, CA, USA) was utilized, and p ≤ 0.05 was set as a significance level. The respiratory activity of the bacterial cultures was calculated as a percentage against the untreated control.

[15] = tested on: Candida Albicans SAIMC 562; test: Dehydrogenase activity (DEHA) MTT test after BMD; format: cell-based; settings: 24 h exposure; % active cells against untreated control; ± SD; n = 3
Method: as §3
(§5) The IC50 values from the MTT assay were evaluated with a non-linear regression analysis (Curve fit, GraphPad Prizm 6.01 software, GraphPad Software Inc., San Diego, CA, USA) using sigmoidal concentration–response curves. The cell viability is presented as a percentage of the untreated control. […] The maximum tolerated concentration (MTC) for the cell lines was determined from three independent assays according to ISO 10993-5 as the maximum concentration at which at least 70% of the cells were viable (nonlin fit, range, GraphPad Prizm 6.01 software) GraphPad Software Inc., San Diego, CA, USA). […] The respiratory activity of the bacterial cultures was calculated as a percentage against the untreated control.

E. faecalis ATCC 29212 [16] = test: Dehydrogenase activity (DEHA) MTT test after BMD; format: cell-based, Enterococcus faecalis; settings: 24 h exposure; % against untreated control; ± SD; n = 3
Method: as §3, §4

E. coli ATCC 35218 [17] = test: Dehydrogenase activity (DEHA) MTT test after BMD; format: cell-based, Escherichia coli; settings: in MHB; 24 h exposure; % against untreated control; ± SD; n = 3
Method: as §3, §5

P. aeruginosa ATCC 27853 [18] = test: Dehydrogenase activity (DEHA) MTT test after BMD; format: cell-based, Pseudomonas aeruginosa; settings: 24 h exposure; % against untreated control; ± SD; n = 3
Method: as §3, §4

Compound | MBC (S. Aureus ATCC 29213 [3]) [%] | MIC (S. Aureus ATCC 29213 [3]) [%] | MBC [4] [%] | MIC [4] [%] | MBC (S. pyogenes SAIMC 10535 [5]) [%] | MIC (S. pyogenes SAIMC 10535 [5]) [%] | MBC (E. faecalis ATCC 29212 [6]) [%] | MIC (E. faecalis ATCC 29212 [6]) [%] | MBC (E. coli ATCC 35218 [7]; in LBB) [%] | MIC (E. coli ATCC 35218 [7]; in LBB) [%] | MBC (E. coli ATCC 35218 [7]; in MHB) [%] | MIC (E. coli ATCC 35218 [7]; in MHB) [%] | MBC (P. aeruginosa ATCC 27853 [8]) [%] | MIC (P. aeruginosa ATCC 27853 [8]) [%] | MBC [9] [%] | MIC [9] [%] | MBC [10] [%] | MIC [10] [%] | Experimental logP [11] | DEHA (dehydrogenase activity) (S. Aureus ATCC 29213 [12]) [%] | also measured
CC(C)=O [acetone] |  |  |  |  |  |  |  |  |  |  |  |  |  |  |  |  |  |  |  |  | maximum tolerated concentration (MTC) / applicable concentration [1]: up to 0.5 % v/v
PEG-200 |  |  |  |  |  |  |  |  |  |  |  |  |  |  |  |  |  |  |  |  | clastogenic concentrations [2]: 5 to 7 mM
CO [MeOH, methanol] | >25 | >25 | >25 | >25 | >25 | >25 | >25 | >25 | >25 | >25 | >25 | >25 | >25 | >25 | >25 | >25 | >25 | >25 | −0.77 |  | survival (S. epidermidis): 26%
COCCOC [DME, 1,2-dimethoxyethane] | 12.5 | 6.25 | 3.125 | 3.125 | >25 | 6.25 | 12.5 | 12.5 | 6.25 | 3.125 | 12.5 | 12.5 | 12.5 | 12.5 | 6.25 | 3.125 | 25 | 12.5 | −0.21 | 12.54 ± 0.03 | DEHA (dehydrogenase activity) (S. pyogenes SAIMC 10535 [13]): 31.32 ± 0.05%; DEHA (dehydrogenase activity) [14]: 49.04 ± 0.005%; DEHA (dehydrogenase activity) [15]: 31.23% and 31.23 ± 0.01%
COCCO [MEtOH, 2-methoxyethanol] | >25 | 25 | 25 | 25 | >25 | 12.5 | >25 | 12.5 | 12.5 | 12.5 | 25 | 12.5 | 25 | 6.25 | 25 | 12.5 | 12.5 | 6.25 | −0.77 | 10.27 ± 0.01 | DEHA (dehydrogenase activity) (S. pyogenes SAIMC 10535 [13]): 28.02 ± 0.02%; DEHA (dehydrogenase activity) (E. faecalis ATCC 29212 [16]): 25.60 ± 0.04%; DEHA (dehydrogenase activity) (E. coli ATCC 35218 [17]): 5.86 ± 0.005%; DEHA (dehydrogenase activity) (P. aeruginosa ATCC 27853 [18]): 20.23 ± 0.06%; DEHA (dehydrogenase activity) [14]: 11.76 ± 0.004%; DEHA (dehydrogenase activity) [15]: 77.41 ± 0.03%
